Measurements published in patent publication US20250049713A1, “LIPID NANOPARTICLES FOR DELIVERY OF AGENTS” (Massachusetts Institute of Technology, priority 2023, published 2025).

Tested on: VE-cadherin (Cdh5) mRNA
Assay: In vivo endothelial Cdh5 gene silencing after intravenous siCdh5 LNP, tissue mRNA by RT-qPCR
Set-up: species or system mice
Conditions: for RNA delivery to endothelial cells vs DOTAP and EDMPC: formulation screening, summary statement
From the text: Cadherin (Cdh5), also known as vascular endothelial cadherin (VE-cadherin) is a useful target gene to evaluate endothelial cell siRNA delivery in that Cdh5 expression is strictly limited to endothelial cells. By quantifying Cdh5 mRNA remaining in the tissues after siCdh5 administration, RNA delivery efficiency to endothelial cells can be evaluated.
Animal Experiments: All animal studies were approved by the MIT Institutional Animal Care and Use Committee (CAC) and were consistent with local, state, and federal regulations as applicable. All experimental procedures were performed with ethical compliance and approval under the guidelines for Division of Comparative Medicine by Massachusetts Institute of Technology. Female C57BL/6 mice (6 weeks) were obtained from Jackson Laboratory, housed in an MIT animal facility, and acclimated for at least 3 days before the initiation of a study.
For intravenous administration, siRNA-lipid nanoparticles diluted in PBS were injected […] using 29 g, 3/10 cc insulin syringes (BD Biosciences) after gentle warming of the animals using a heat lamp. For intramuscular administration, siRNA-lipid nanoparticles diluted in PBS were injected […] using 29 g, 3/10 cc insulin syringes (BD Biosciences).
48-72 hours after injection, organs or tissues including the heart, liver, spleen, lung, kidneys, muscle (quadriceps), and brain were collected and soaked in RNAlater solution (Thermo Fisher) for 12-48 hours at 4° C. and stored at −20° C. after the removal of RNAlater.
Tissue mRNA Quantification by RT-qPCR: Total RNA was isolated from tissues using the TRIzol (Thermo Fisher) and Direct-zol-96 MagBead (Zymo Research), or Quick-RNA MagBead (Zymo Research). Briefly, tissue punches were placed in a deep-well 96 well plate with 4-mm stainless beads and lysed with 350 μL TRIzol, or 250 μL DNA/RNA Shield (Zymo Reaearch) using a GenoGrinder2010. Total RNA was further purified using Direct-zol-96 MagBead (Zymo Research) or Quick-RNA MagBead (Zymo Research) according to the manufacturer's protocol.
cDNA was synthesized using ABI High Capacity cDNA Reverse Transcription Kit (Applied Biosystems #4368814) according to manufacturer instructions. Briefly, 5 μl of a master mix containing 1 μl 10X Buffer, 0.4 μl 25X dNTPs, 1 μl 10X Random primers, 0.5 μl Reverse Transcriptase, and 2.1 μl of water per reaction was added to 5 μl total RNA solution that was isolated using the above protocol. Plates were sealed, mixed, and incubated on a thermal cycler for 10 minutes at 25° C., followed by 2 hours at 37° C. and 5 minutes at 85° C.
Gene expression was analyzed in qPCR with Luna® Universal Probe RT-qPCR Kit (NEB) and Taqman probes-Cdh5 (Mm00486938_m1), and Gusb (Mm01197698_m1) or B2m (Mm00437762_m1). Samples were amplified using a LightCycler 480 qPCR machine (Roche). Cdh5 expression was normalized to B2m or Gusb.

[1] = Example 3: 20% cationic lipid LNPs, siCdh5 0.5 mg/kg i.v.

`CCCCCCCCCCCCCC(=O)OCCN(CCOC(=O)CCCCCCCCCCCCC)C(=O)C[N+](C)(C)C` [DC-6-14, O,O′-ditetradecanoyl-N-(a-trimethylammonioacetyl) diethanolamine] was tested, and the “delivery to endothelial cells among screened cationic lipids” value [1] was “most efficacious delivery to endothelial cells” and the “RNA delivery to endothelial cells vs DOTAP and EDMPC” value (shortened to “RNA delivery … vs DOTAP and EDMPC”) was “much more efficiently”.

For `CCCCCCCCCCCCCCCC(=O)OCC(C[N+](C)(C)C)OC(=O)CCCCCCCCCCCCCCC` (centres unmarked) [DPTAP, 1,2-dipalmitoyl-3-trimethylammonium-propane], the “delivery to endothelial cells among screened cationic lipids” value [1] was “most efficacious delivery to endothelial cells”, the “endothelial delivery, DPTAP (16:0 TAP) vs DSTAP (18:0 TAP)” value [1] was “significantly more efficient endothelial delivery” and the “RNA delivery … vs DOTAP and EDMPC” value was “much more efficiently”.

For `CCCCCCCCCCCCCC(=O)OC[C@H](COP(=O)(OCC)OCC[N+](C)(C)C)OC(=O)CCCCCCCCCCCCC` (some centres unmarked) [EDMPC, 1,2-dimyristoyl-sn-glycero-3-ethylphosphocholine], the “endothelial delivery, EDMPC (14:0 EPC) vs EDLPC (12:0 EPC)” value [1] was “more efficient endothelial delivery”.

With `CCCCCCCCCCCCCCCC(=O)OC[C@H](COP(=O)(OCC)OCC[N+](C)(C)C)OC(=O)CCCCCCCCCCCCCCC` (some centres unmarked) [EDPPC, 1,2-dipalmitoyl-sn-glycero-3-ethylphosphocholine] the “delivery to endothelial cells among screened cationic lipids” value [1] was “most efficacious delivery to endothelial cells” and the “RNA delivery … vs DOTAP and EDMPC” value was “much more efficiently”.
